In patent US11684614B2, “Formulations of hydroxypyridonate actinide/lanthanide decorporation agents” (priority 2017, dated 2023):
Values joined by “and” are separate entries in the source; they are usually repeats but may differ in a detail not shown here. Equal entries are not always repeated.

Experiment: Repeated-treatment efficacy for removing an intravenous dose of 238Pu (excretion, tissue retention, clinical observations), female and male arms
Type: in vivo, Swiss-Webster mice
Settings: listed as 3,4,3-LI(1,2-HOPO); for % Recovered Dose - Feces per Day: male mice
Procedure: The objective of this study was to characterize the efficacy of 3,4,3-L1(1,2-HOPO) at enhancing elimination from an internal plutonium burden in female and male Swiss-Webster mice administered a soluble citrate complex of ^238Pu and treated multiple times, starting at 24 hours after the exposure. Efficacy was evaluated by comparing the tissue contents, urinary and fecal excretions of ^238Pu in treated animals versus untreated animals.
The medical countermeasure 3,4,3-L1(1,2-HOPO) was administered parenterally (ip) or orally (po) via consecutive injections or gavages (six daily or twelve twice daily) starting at 24 hours post contamination at the following four selected doses: 30 μmol/kg ip, 150 μmol/kg po, 300 μmol/kg po, and 600 μmol/kg po (equivalent to respective approximate human doses range of […], using the accepted conversion system of mouse doses into human equivalent doses—HED—based on body surface area). Oral doses also included the permeability enhancer selected during formulation development work.
• Challenge isotope: ^238Pu • Challenge dose: 25 nCi (i.e., approximately 0.8 μCi/kg) • Route of contamination: Intravenous (iv) tail-vein • Route of treatment: Intraperitoneal Injection (ip) or Oral (po) • Frequency of treatment: Multiple (once- or twice-daily for 6 days) doses, starting 24 hr postcontamination • Treatment dose calculation: Dose calculations (mg/kg or μmol/kg) for the decorporation agent were based on the individual body weight measured after contamination. • Study Duration: 11 days, in-life
c. […] Test article and control dose formulations were prepared within 1 day of dose administration, by weighing out the appropriate amount of test article, dispersing in vehicle. For ip solutions, the test article was used alone, while for oral suspensions, a mixture of test article and excipient (90:10, w:w) was used. The pH was adjusted to 7.0-7.4 for ip administration and 5.0-5.5 for oral administration with sterile NaOH. Dose formulations were prepared at room temperature and filter-sterilized. • Storage: 2-8° C.; refrigerated; protected from light. • Characterization: The concentration of each test article formulation was verified by high-performance liquid chromatography-mass spectrometry. • Test Article Handling: Test, reference, and control article formulations were handled with the use of eye protection, gloves, and a protective laboratory coat. • Correct Dose Assurance: The test article was weighed with calibrated balances. The administration of each dose formulation was properly documented, and the amount administered to each animal recorded.
e. Experimental Procedures (In-Life Evaluations and Euthanasia) • Contamination: Single administration by intravenous (iv) tail-vein injection (0.2 mL injection volume) under isoflurane anesthesia. Three standard 0.2 mL injections were performed into polyethylene bottles and pre-loaded with aliquots of concentrated nitric acid on each injection day. Six female and six male mice were culled for necropsy 1 hr post-contamination and were used as standards. A11 standards were processed and counted together with the final samples to allow verification of the contamination dose. • Dose Administration: Single administration by intraperitoneal injection (ip) or oral gavage (po) under isoflurane anesthesia. • Mortality/Morbidity: Assessed at least once daily. • Clinical Observations: Recorded once daily (4 hr post-dose on day of treatment), or more often as clinical signs warranted. […]

[1] = male arm table, Day 11 necropsy, animal group M

O=C(NCCCN(CCCCN(CCCNC(=O)c1cccc(=O)n1O)C(=O)c1cccc(=O)n1O)C(=O)c1cccc(=O)n1O)c1cccc(=O)n1O [3,4,3-L1(1,2-HOPO)]
% Recovered Dose Urine per Day, Day 5 [1]: 0.66% and 0.36% and 0.19% and 0.53% and 0.60% and 0.47% and 0.30% and 0.22% | % Recovered Dose Urine per Day, Day 6 [1]: 0.38% and 0.35% and 0.46% and 0.26% and 0.36% and 0.41% and 0.12% and 0.61% | % Recovered Dose Urine per Day, Day 7 [1]: 0.73% and 0.69% and 0.76% and 0.65% and 0.63% and 0.83% and 0.47% and 0.38% | % Recovered Dose Urine per Day, Day 8 [1]: 0.40% and 0.36% and 0.42% and 0.32% and 0.43% and 0.34% and 0.74% and 0.33% | % Recovered Dose Urine per Day, Day 9 [1]: 0.40% and 0.45% and 0.37% and 0.42% and 0.61% and 0.41% and 0.48% | % Recovered Dose Urine per Day, Day 10 [1]: 0.12% and 0.23% and 0.16% and 0.28% and 0.21% and 0.62% and 0.46% and 0.27% | % Recovered Dose Urine per Day, Day 11 [1]: 0.35% and 0.30% and 0.22% and 0.20% and 0.36% and 0.43% and 0.26% and 0.42% | % Recovered Dose - Feces per Day (group B, feces day 1, Day 7 necropsy): 4.37% and 8.32% and 7.75% and 4.30% | % Recovered Dose - Feces per Day (group B, feces day 2, Day 7 necropsy): 7.66% and 12.16% and 9.09% and 13.43% | % Recovered Dose - Feces per Day (group B, feces day 3, Day 7 necropsy): 2.15% and 3.85% and 3.59% and 3.55% | % Recovered Dose - Feces per Day (group B, feces day 4, Day 7 necropsy): 3.14% and 4.08% and 1.98% and 4.25% | % Recovered Dose - Feces per Day (group B, feces day 5, Day 7 necropsy): 1.34% and 2.97% and 0.93% and 2.49% | % Recovered Dose - Feces per Day (group B, feces day 6, Day 7 necropsy): 2.28% and 6.44% and 1.47% and 2.02% | % Recovered Dose - Feces per Day (group B, feces day 7, Day 7 necropsy): 1.46% and 2.68% and 1.21% and 2.10% | % Recovered Dose - Feces per Day (group C, feces day 1, Day 7 necropsy): 8.78% and 6.29% and 9.94% and 4.97% | % Recovered Dose - Feces per Day (group C, feces day 2, Day 7 necropsy): 15.31% and 12.37% and 22.78% and 14.58% | % Recovered Dose - Feces per Day (group C, feces day 3, Day 7 necropsy): 2.49% and 5.42% and 4.54% and 6.24% | % Recovered Dose - Feces per Day (group C, feces day 4, Day 7 necropsy): 3.01% and 3.04% and 5.87% and 3.77% | % Recovered Dose - Feces per Day (group C, feces day 5, Day 7 necropsy): 1.70% and 2.00% and 3.00% and 2.15% | % Recovered Dose - Feces per Day (group C, feces day 6, Day 7 necropsy): 1.91% and 2.24% and 2.37% and 2.32% | % Recovered Dose - Feces per Day (group C, feces day 7, Day 7 necropsy): 1.21% and 1.32% and 1.95% and 1.31% | % Recovered Dose - Feces per Day (group E, feces day 1, Day 7 necropsy): 6.19% and 11.96% and 7.28% and 11.97% | % Recovered Dose - Feces per Day (group E, feces day 2, Day 7 necropsy): 19.35% and 15.22% and 16.75% and 13.98% | % Recovered Dose - Feces per Day (group E, feces day 3, Day 7 necropsy): 3.91% and 2.72% and 3.36% and 3.87% | % Recovered Dose - Feces per Day (group E, feces day 4, Day 7 necropsy): 5.36% and 3.66% and 5.40% and 5.25% | % Recovered Dose - Feces per Day (group E, feces day 5, Day 7 necropsy): 1.97% and 1.84% and 1.67% and 1.79% | % Recovered Dose - Feces per Day (group E, feces day 6, Day 7 necropsy): 2.01% and 2.66% and 2.92% and 1.87% | % Recovered Dose - Feces per Day (group E, feces day 7, Day 7 necropsy): 2.11% and 1.97% and 2.22% and 1.18% | % Recovered Dose - Feces per Day (group F, feces day 1, Day 7 necropsy): 6.91% and 7.78% and 14.62% and 9.13% | % Recovered Dose - Feces per Day (group F, feces day 2, Day 7 necropsy): 14.25% and 13.00% and 16.24% and 15.40% | % Recovered Dose - Feces per Day (group F, feces day 3, Day 7 necropsy): 13.31% and 3.36% and 3.68% and 5.91% | % Recovered Dose - Feces per Day (group F, feces day 4, Day 7 necropsy): 4.17% and 4.09% and 3.98% and 3.52% | % Recovered Dose - Feces per Day (group F, feces day 5, Day 7 necropsy): 1.77% and 2.34% and 1.75% and 1.78% | % Recovered Dose - Feces per Day (group F, feces day 6, Day 7 necropsy): 1.60% and 2.84% and 1.72% and 1.54% | % Recovered Dose - Feces per Day (group F, feces day 7, Day 7 necropsy): 0.74% and 2.65% and 2.45% and 1.59%
